The values that follow come from patent US20260053861A1, “CELL COMPOSITIONS AND METHODS OF USING THE SAME” (THE REGENTS OF THE UNIVERSITY OF CALIFORNIA, priority 2022, published 2026).

Structures can show the parent of a compound that is named as a salt.

For the first test, the system named is hPSC-SCs.
Details: not given
For the compound `CC(=O)OCC1=C(C(=O)O)N2C(=O)[C@@H](N)[C@H]2SC1` [Cephalosporanic acid, 7-amino], the z.score.t is reported as −0.7049.

Regarding `O=C(O)CCCc1ccc(N(CCCl)CCCl)cc1` [Chlorambucil], the z.score.t is reported as −1.263.

Regarding `CN1C(=O)CCS(=O)(=O)C1c1ccc(Cl)cc1` (stereo not shown) [Chlormezanone], the z.score.t is −0.5532.

On to `CCN(CC)CCCC(C)Nc1ccnc2cc(Cl)ccc12` (stereo not shown) [Chloroquine diphosphate], for which the z.score.t is listed as 0.7847.

The compound `C=C1CC[C@H](O)C/C1=C/C=C1\CCC[C@]2(C)[C@@H]([C@H](C)CCCC(C)C)CC[C@@H]12` [Cholecalciferol] gave a z.score.t of 1.034.

In the case of `O=C1C=CC(=O)c2c1ccc1c2ccc2ccccc21` [Chrysene-1,4-quinone], the z.score.t is listed as −1.823.

Consider `CC(C)(C)NCC(O)c1cc(Cl)c(N)c(Cl)c1` (stereo not shown) [Clenbuterol hydrochloride], for which the z.score.t is on record as 0.4048.

As for `Cc1c(Cl)cccc1Nc1ncccc1C(=O)O.NCCCC[C@H](N)C(=O)O` [Clonixin Lysinate], the z.score.t was found to be 0.9603.

For the compound `COc1cc2c(c(OC)c1OC)-c1ccc(OC)c(=O)cc1[C@@H](NC(C)=O)CC2` [Colchicine], the z.score.t is recorded as −1.804.

As for `CCN1C[C@]2(COC)CC[C@H](O)[C@@]34C5C[C@@H]6[C@@H](OC)C[C@](O)(C(CC23)C14)C5[C@H]6OC(C)=O` (stereo partly shown) [Condelphine], the z.score.t came to 2.361.

The test is the same for the next values; noted with them: HTS viability of hPSC-SCs in the presence of 30 mM glucose; Prestwick library; Table S4.
Regarding `CO[C@@]1(NC(=O)C2SC(=C(C(N)=O)C(=O)O)S2)C(=O)N2C(C(=O)O)=C(CSc3nnnn3C)CS[C@@H]21` (stereo partly shown) [Cefotetan], the z.score.t is recorded as −0.4942.

For `CN(C)CCn1nnnc1SCC1=C(C(=O)O)N2C(=O)[C@@H](NC(=O)Cc3csc(N)n3)[C@H]2SC1` [Cefotiam hydrochloride], the z.score.t was −1.122.

With `CO[C@@]1(NC(=O)Cc2cccs2)C(=O)N2C(C(=O)O)=C(COC(N)=O)CS[C@@H]21` [Cefoxitin sodium salt], the z.score.t turned out to be 0.6964.

Consider `NC(=O)c1cc[n+](CC2=C(C(=O)O)N3C(=O)[C@@H](NC(=O)[C@@H](c4ccccc4)S(=O)(=O)[O-])[C@H]3SC2)cc1` [Cefsulodin sodium salt], for which the z.score.t is −0.03362.

In the case of `CC(C)(O/N=C(\C(=O)N[C@@H]1C(=O)N2C(C(=O)[O-])=C(C[n+]3ccccc3)CS[C@H]12)c1csc(N)n1)C(=O)O` [Ceftazidime pentahydrate], the z.score.t came out at 0.563.

For `CO/N=C(\C(=O)N[C@@H]1C(=O)N2C(C(=O)O)=C(COC(N)=O)CS[C@H]12)c1ccco1` [Cefuroxime sodium salt], the z.score.t is reported as −0.8132.

On to `CC1=C(C(=O)O)N2C(=O)[C@@H](NC(=O)[C@H](N)c3ccccc3)[C@H]2SC1` [Cephalexin monohydrate], for which the z.score.t is given as 1.08.

On to `CC(=O)OCC1=C(C(=O)O)N2C(=O)[C@@H](NC(=O)Cc3cccs3)[C@H]2SC1` [Cephalothin sodium salt], for which the z.score.t was −1.359.

Take `O=C(O)COCCN1CCN(C(c2ccccc2)c2ccc(Cl)cc2)CC1` (stereo not shown) [Cetirizine dihydrochloride]: the z.score.t is on record as −0.3112.

As for `C[C@H](CCC(=O)O)[C@H]1CC[C@H]2[C@@H]3[C@H](O)C[C@@H]4C[C@H](O)CC[C@]4(C)[C@H]3CC[C@]12C` [Chenodiol], the z.score.t came out at 1.481.

With `COc1cc(-c2ccc(N=Nc3ccc4c(S(=O)(=O)[O-])cc(S(=O)(=O)[O-])c(N)c4c3O)c(OC)c2)ccc1N=Nc1ccc2c(S(=O)(=O)[O-])cc(S(=O)(=O)[O-])c(N)c2c1O.[Na+].[Na+].[Na+].[Na+]` [Chicago sky blue 6B], the z.score.t turned out to be 0.6578.

As for `O=C(N[C@H](CO)[C@H](O)c1ccc([N+](=O)[O-])cc1)C(Cl)Cl` [Chloramphenicol], the z.score.t is 1.278.

For `CN1CCN(C(c2ccccc2)c2ccc(Cl)cc2)CC1` (stereo not shown) [Chlorcyclizine hydrochloride], the z.score.t is listed as −1.754.

On to `[H]/N=C(\N/C(=N/[H])NCCCCCCNC(=N)NC(=N)Nc1ccc(Cl)cc1)Nc1ccc(Cl)cc1` [Chlorhexidine], for which the z.score.t was 1.056.

As to `O=C(/C=C/c1ccc(O)c(O)c1)O[C@@H]1C[C@](O)(C(=O)O)C[C@@H](O)[C@H]1O` [Chlorogenic acid], the z.score.t was 0.888.

As to `CN(C)CCN(Cc1ccc(Cl)cc1)c1ccccn1` [Chloropyramine hydrochloride], the z.score.t is −0.5169.

Consider `NS(=O)(=O)c1cc2c(cc1Cl)N=CNS2(=O)=O` [Chlorothiazide], for which the z.score.t is recorded as 1.171.

Turning to `COc1ccc(C(Cl)=C(c2ccc(OC)cc2)c2ccc(OC)cc2)cc1` [Chlorotrianisene], the z.score.t is −0.5169.

For the compound `CN(C)CCC(c1ccc(Cl)cc1)c1ccccn1` (stereo not shown) [Chlorpheniramine maleate], the z.score.t amounted to 0.5452.

Consider `NC(=O)OCC(O)COc1ccc(Cl)cc1` (stereo not shown) [Chlorphensin carbamate], for which the z.score.t is listed as −0.09426.

In the case of `CN(C)CCCN1c2ccccc2Sc2ccc(Cl)cc21` [Chlorpromazine hydrochloride], the z.score.t is −1.622.

Regarding `CCCNC(=O)NS(=O)(=O)c1ccc(Cl)cc1` [Chlorpropamide], the z.score.t worked out at 0.1979.

With `CN(C)CC/C=C1/c2ccccc2Sc2ccc(Cl)cc21` [Chlorprothixene hydrochloride], the z.score.t is −0.6678.

Take `CN(C)[C@@H]1C(O)=C(C(N)=O)C(=O)[C@@]2(O)C(O)=C3C(=O)c4c(O)ccc(Cl)c4[C@@](C)(O)[C@H]3C[C@@H]12` [Chlortetracycline hydrochloride]: the z.score.t came out at 0.02534.

Regarding `NS(=O)(=O)c1cc(C2(O)NC(=O)c3ccccc32)ccc1Cl` (stereo not shown) [Chlorthalidone], the z.score.t is reported as −1.061.

Turning to `O=c1cc(-c2ccccc2)oc2cc(O)cc(O)c12` [Chrysin], the z.score.t is recorded as 0.2139.

For the compound `Cc1cc(C2CCCCC2)n(O)c(=O)c1.NCCO` [Ciclopirox ethanolamine], the z.score.t is −1.422.

With `O=C1CCc2cc(OCCCCc3nnnn3C3CCCCC3)ccc2N1` [Cilostazol], the z.score.t amounted to 1.73.

In the case of `CN/C(=N/CCSCc1nc[nH]c1C)NC#N` [Cimetidine], the z.score.t was found to be 0.4346.

Take `C=C[C@H]1C[N@@]2CC[C@H]1C[C@@H]2[C@@H](O)c1ccnc2ccccc12` [Cinchonine]: the z.score.t is on record as 1.252.

On to `C(=C\c1ccccc1)/CN1CCN(C(c2ccccc2)c2ccccc2)CC1` [Cinnarizine], for which the z.score.t was −0.8513.

As to `CCn1nc(C(=O)O)c(=O)c2cc3c(cc21)OCO3` [Cinoxacin], the z.score.t came to 0.9525.

For `CC(C)(Oc1ccc(C2CC2(Cl)Cl)cc1)C(=O)O` (stereo not shown) [Ciprofibrate], the z.score.t was −0.2611.

`O=C(O)c1cn(C2CC2)c2cc(N3CCNCC3)c(F)cc2c1=O` [Ciprofloxacin hydrochloride]: the z.score.t is reported as 0.6386.

As to `COc1cc(N)c(Cl)cc1C(=O)NC1CCN(CCCOc2ccc(F)cc2)CC1OC` (stereo not shown) [Cisapride], the z.score.t is reported as 0.3436.

Turning to `CN(C)CCCC1(c2ccc(F)cc2)OCc2cc(C#N)ccc21` (stereo not shown) [Citalopram Hydrobromide], the z.score.t was −0.5169.

Turning to `COc1cc(N)c(Cl)cc1C(=O)NC1CCN(Cc2ccccc2)CC1` [Clebopride maleate], the z.score.t is recorded as 1.08.

As to `CN1CCC[C@@H]1CCO[C@](C)(c1ccccc1)c1ccc(Cl)cc1` [Clemastine fumarate], the z.score.t is reported as −1.892.

For `Clc1ccc(Cn2c(CN3CCCC3)nc3ccccc32)cc1` [Clemizole hydrochloride], the z.score.t amounted to 0.7789.

With `C[N+]12CCC(CC1)C(OC(=O)C(O)(c1ccccc1)c1ccccc1)C2` (stereo not shown) [Clidinium bromide], the z.score.t stood at 1.743.

For the compound `Oc1c(I)cc(Cl)c2cccnc12` [Clioquinol], the z.score.t is listed as −0.2802.

In the case of `CCC(=O)O[C@]1(C(=O)CCl)[C@@H](C)C[C@H]2[C@@H]3CCC4=CC(=O)C=C[C@]4(C)[C@@]3(F)[C@@H](O)C[C@@]21C` [Clobetasol propionate], the z.score.t amounted to 1.323.

Regarding `C[C@@H]1C[C@H]2[C@@H]3C[C@H](F)C4=CC(=O)C=C[C@]4(C)[C@@]3(Cl)[C@@H](O)C[C@]2(C)[C@H]1C(=O)COC(=O)C(C)(C)C` [Clocortolone pivalate], the z.score.t is given as −0.7388.

For `CC(C)/N=c1\cc2n(-c3ccc(Cl)cc3)c3ccccc3nc-2cc1Nc1ccc(Cl)cc1` [Clofazimine], the z.score.t is reported as −1.765.

In the case of `CC(C)(Oc1ccc(Cl)cc1)C(=O)O` [Clofibric acid], the z.score.t was −0.8317.

As for `CCN(CC)CCOc1ccc(C(=C(Cl)c2ccccc2)c2ccccc2)cc1.O=C(O)CC(O)(CC(=O)O)C(=O)O` [Clomiphene citrate (Z,E)], the z.score.t is on record as −1.755.

Regarding `CN(C)CCCN1c2ccccc2CCc2ccc(Cl)cc21` [Clomipramine hydrochloride], the z.score.t was −1.637.

On to `Clc1cccc(Cl)c1N=C1NCCN1` [Clonidine hydrochloride], for which the z.score.t was determined as 1.056.

Turning to `C[C@@H]1CCC[C@H](C)N1NC(=O)c1ccc(Cl)c(S(N)(=O)=O)c1` [Clopamide], the z.score.t was found to be 0.7847.

`Clc1ccc(C(OCCN2CCCCC2)c2ccccc2)cc1` (stereo not shown) [Cloperastine hydrochloride]: the z.score.t was −1.185.

`C#CCN(C)CCCOc1ccc(Cl)cc1Cl` [Clorgyline hydrochloride]: the z.score.t is on record as 0.1556.

With `Nc1cc(C(Cl)=C(Cl)Cl)c(S(N)(=O)=O)cc1S(N)(=O)=O` [Clorsulon], the z.score.t was 0.563.

As to `Clc1ccccc1C(c1ccccc1)(c1ccccc1)n1ccnc1` [Clotrimazole], the z.score.t is −1.91.

As for `Cc1onc(-c2ccccc2Cl)c1C(=O)N[C@@H]1C(=O)N2[C@@H]1SC(C)(C)[C@@H]2C(=O)O` [Cloxacillin sodium salt], the z.score.t is recorded as 0.6255.

Consider `CN1CCN(C2=Nc3cc(Cl)ccc3Nc3ccccc32)CC1` [Clozapine], for which the z.score.t was 1.049.

Turning to `C[C@H]1[C@H]2CC[C@H]3[C@@H]4CC=C5C[C@@H](N(C)C)CC[C@]5(C)[C@H]4CC[C@]23CN1C` [Conessine], the z.score.t is 0.5822.

With `COc1ccc(C(=O)OC2C[C@H]3CC[C@@H](C2)N3C)cc1OC.Cl` (stereo partly shown) [Convolamine hydrochloride], the z.score.t turned out to be 1.345.
